Experimental data as given in patent US20110087037A1, “SYNTHESIS OF RING B ABEO-STEROLS AS NOVEL INHIBITORS OF MYCOBACTERIUM TUBERCULOSIS” (priority 2007, published 2011).
Converted amounts (≈) assume the structure as drawn. “Also recorded” adds a separate entry of the source. Read-outs that look alike come from different tables or passages of the source.

Tests used:
VERO cells (ATCC CCL-81) = assay: Cytotoxicity against VERO cells; assay type: cell-based
Mtb H37Rv (ATCC 27294) = assay: Microplate Alamar Blue Assay (MABA), in vitro M. tuberculosis growth inhibition; assay type: cell-based, Mycobacterium tuberculosis; details: for meaningful activity against Mtb: at 64 μg/mL
[1] = patients on TB therapy; cited from earlier work
[2] = 16 μg/mL, Mtb H37Rv, MABA, mean of three experiments
[3] = 32 μg/mL, Mtb H37Rv, MABA, mean of three experiments
[4] = 64 μg/mL, Mtb H37Rv, MABA, mean of three experiments
[5] = 128 μg/mL, Mtb H37Rv, MABA, mean of three experiments
[6] = lowest drug concentration that effected an inhibition of ≧90% relative to untreated cultures, Mtb H37Rv
[7] = 2 μg/mL, Mtb H37Rv, MABA, mean of three experiments
[8] = 4 μg/mL, Mtb H37Rv, MABA, mean of three experiments
[9] = 8 μg/mL, Mtb H37Rv, MABA, mean of three experiments

Row | Structure (SMILES) | Cyto-toxicity IC50 (VERO cells (ATCC CCL-81)) | % Inhibition (Mtb H37Rv (ATCC 27294); [2]) | % Inhibition (Mtb H37Rv (ATCC 27294); [3]) | % Inhibition (Mtb H37Rv (ATCC 27294); [4]) | % Inhibition (Mtb H37Rv (ATCC 27294); [5]) | meaningful activity against Mtb (Mtb H37Rv (ATCC 27294)) | MIC (Mtb H37Rv (ATCC 27294); [6]) | % Inhibition (Mtb H37Rv (ATCC 27294); [7]) | % Inhibition (Mtb H37Rv (ATCC 27294); [8]) | % Inhibition (Mtb H37Rv (ATCC 27294); [9]) | Adverse reactions, Infrequent (≧1 per 1,000 patients and <1 per 100 patients) [1] | also measured
1 | C=C(CC[C@@H](C)[C@H]1CC[C@H]2[C@@H]3CC=C4C[C@@H](O)CC[C@]4(C)[C@H]3CC[C@]12C)C(C)C [Compound 1] | >128 (n.d.) μg/mL | 33% | 43% | 40% | 97% | none | 120.1 µg/mL (≈ 301 µM) | – | – | – | – | activity against M. tuberculosis H37Rv (Mtb H37Rv (ATCC 27294)): only marginal activity
2 | CC(C)C(C)C1(C)CC1C(C)C1CCC2C3C(C=O)=C4CC(O)CCC4(C)C3CCC12C (centres unmarked) [Compound 9] | – | 96% | 98% | 99% | 99% | – | 12.7 µg/mL (≈ 28.8 µM) | 17% | 33% | 81% | – | –
3 | CCC(CCC(C)C1CCC2C3CC=C4CC(O)CCC4(C)C3CCC12C)C(C)C (centres unmarked) [Compound 4] | >128 (n.d.) μg/mL | 32% | 31% | 48% | 45% | none | >128 µg/mL | −1% | 8% | 7% | – | –
4 | CC(C)[C@@H](C)CC[C@@H](C)[C@H]1CC[C@H]2[C@@H]3C(C=O)=C4C[C@@H](O)CC[C@]4(C)[C@H]3CC[C@]12C [Compound 11] | – | 99% | 99% | 100% | 99% | – | 3.9 µg/mL (≈ 9.4 µM) | 39% | 94% | 97% | – | –
5 | CC(C)CCC[C@@H](C)[C@H]1CC[C@H]2[C@@H]3CC=C4C[C@@H](O)CC[C@]4(C)[C@H]3CC[C@]12C [Compound 6, cholesterol] | – | – | – | – | – | none | – | – | – | – | – | inhibition at 16 µg/mL (Mtb H37Rv (ATCC 27294); Mycobacterium tuberculosis, 16 μg/mL, Mtb H37Rv, MABA, mean of three experiments): 33%; inhibition at 32 µg/mL (Mtb H37Rv (ATCC 27294); Mycobacterium tuberculosis, 32 μg/mL, Mtb H37Rv, MABA, mean of three experiments): 13%; inhibition at 64 µg/mL (Mtb H37Rv (ATCC 27294); Mycobacterium tuberculosis, 64 μg/mL, Mtb H37Rv, MABA, mean of three experiments): 24%; inhibition at 128 µg/mL (Mtb H37Rv (ATCC 27294); Mycobacterium tuberculosis, 128 μg/mL, Mtb H37Rv, MABA, mean of three experiments): 57%; MIC (Mtb H37Rv (ATCC 27294); Mycobacterium tuberculosis, read-out: MIC): > 128 µg/mL
6 | NNC(=O)c1ccncc1 [Isoniazid] | – | – | – | – | – | – | – | – | – | – | Hepatitis; also recorded: Peripheral neuropathy; also recorded: Drug fever | Adverse reactions, Frequent (≧5 per 100 patients) [1]: Liver enzyme
7 | [H]/N=C(/N)N[C@H]1[C@H](O)[C@@H](O)[C@H](O[C@@H]2O[C@@H](C)[C@](O)(C=O)[C@H]2O[C@@H]2O[C@@H](CO)[C@H](O)[C@@H](O)[C@@H]2NC)[C@@H](N/C(N)=N\[H])[C@@H]1O [Streptomycin] | – | – | – | – | – | – | – | – | – | – | Renal damage | Adverse reactions, Common (≧1-5 per 100 patients) [1]: Cochlear toxicity; also recorded: Hypersensitivity; Adverse reactions, Frequent (≧5 per 100 patients) [1]: Vestibular toxicity
8 | CC[C@@H](CO)NCCN[C@@H](CC)CO [Ethambutol] | – | – | – | – | – | – | – | – | – | – | Retrobulbar neuritis; also recorded: Periaxial ocular toxicity | –
9 | NC(=O)c1cnccn1 [Pyrazinamide] | – | – | – | – | – | – | – | – | – | – | Hepatitis and Rash and Nausea | Adverse reactions, Common (≧1-5 per 100 patients) [1]: Nausea; Adverse reactions, Frequent (≧5 per 100 patients) [1]: Arthralgias
10 | CC(C)C(=O)CC[C@@H](C)[C@H]1CC[C@H]2[C@@H]3C(C=O)=C4C[C@@H](O)CC[C@]4(C)[C@H]3CC[C@]12C [Compound 3] | 43.8 µg/mL | 92% | 96% | 100% | 99% | – | 13.6 µg/mL (≈ 32.8 µM) | 52% | 67% | 83% | – | –
11 | CC(C)[C@@H](C)CC[C@@H](C)[C@H]1CC[C@H]2[C@@H]3CC=C4C[C@@H](O)CC[C@]4(C)[C@H]3CC[C@]12C [Compound 10] | >128 (n.d.) μg/mL | 21% | 31% | 41% | 58% | none | >128 µg/mL | 15% | 14% | 23% | – | –
12 | CO[C@H]1/C=C/O[C@@]2(C)Oc3c(C)c(O)c4c(O)c(c(/C=N/N5CCN(C)CC5)c(O)c4c3C2=O)NC(=O)/C(C)=C\C=C\[C@H](C)[C@H](O)[C@@H](C)[C@@H](O)[C@@H](C)[C@H](OC(C)=O)[C@@H]1C [RMP, Rifampin] | – | – | – | – | – | – | – | – | – | – | Hepatitis; also recorded: Pruritus; also recorded: Flu syndrome; also recorded: Drug fever | Adverse reactions, Frequent (≧5 per 100 patients) [1]: Liver enzyme elevations; also recorded: Orange discoloration
13 | CCC(CCC(C)C1CCC2C3C(C=O)=C4CC(O)CCC4(C)C3CCC12C)C(C)C (centres unmarked) [Compound 5] | 26.6 µg/mL | 98% | 99% | 99% | 99% | – | 3.8 µg/mL (≈ 8.86 µM) | 29% | 97% | 99% | – | –
14 | CC(C)CCC[C@@H](C)[C@H]1CC[C@H]2[C@@H]3C(C=O)=C4C[C@@H](O)CC[C@]4(C)[C@H]3CC[C@]12C [Compound 7] | > 128 µg/mL | 96% | 99% | 99% | 99% | – | 15 µg/mL (≈ 37.4 µM) | 10% | 34% | 51% | – | –
15 | CC(C)C(C)C1(C)CC1C(C)C1CCC2C3CC=C4CC(O)CCC4(C)C3CCC12C (centres unmarked) [Compound 8] | >128 (n.d.) μg/mL | 10% | 13% | 18% | 38% | none | >128 µg/mL | – | – | – | – | –
16 | C=C(CC[C@@H](C)[C@H]1CC[C@H]2[C@@H]3C(C=O)=C4C[C@@H](O)CC[C@]4(C)[C@H]3CC[C@]12C)C(C)C [Compound 2] | 51 µg/mL | 105% | 99% | 99% | 99% | – | 7.8 µg/mL (≈ 18.9 µM) | 52% | 69% | 91% | – | –
